This note sets out measurements from patent US9000028B2, “Indole and indazole compounds as an inhibitor of cellular necrosis” (LG Life Sciences Ltd., priority 2007, dated 2015).

The structures appear in SMILES notation.

The subject of one experiment is primary hepatocytes isolated from rats. Put plainly: Hepatocyte protective effect against substances deriving hepatocyte toxicity (WST-1 viability). The following applies: Rattus norvegicus, Hepatocyte, doxorubicin, 24-48 h, read-out: EC50, cell protective effects against doxorubicin in hepatocytes. It counts as cell-based. An outline of the steps: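 Hepatocytes from two-step collagenase perfusion (≥90% viable) seeded on collagen, pretreated 30 min with compound (5-step 2- or 3-fold dilutions from 30, 10 or 1 uM; 0.2% DMSO), then exposed to hepatotoxic agents. WST-1 absorbance at 440 nm after 24-48 h; EC50 = concentration giving 50% of maximal protection.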
Consider `Cc1cc(NC2CCN(S(C)(=O)=O)CC2)c2[nH]c(-c3ccccc3)cc2c1` [Example 91, [1-(Methanesulfonyl)piperidin-4-yl]-(5-methyl-2-phenyl-1H-indol-7-yl)-amine], for which the EC50 stood at 42 nM. For `O=C(O)Cc1cc(NC2CCOCC2)c2[nH]c(-c3ccccc3)cc2c1` [Example 34, 2-[2-Phenyl-7-(tetrahydropyran-4-yl)amino-1H-indol-5-yl]-acetic acid], the 50% effective concentration (EC50) was over 2000 nM. The same measure, in the same setting: the figure for `Cc1cc(NCC2CCCC2)c2[nH]c(-c3ccccn3)cc2c1` [Example 15, Cyclopentylmethyl-[5-methyl-2-(pyridin-2-yl)-1H-indol-7-yl]-amine] is 100 nM; for `COC(=O)Cc1ccc(-c2cc3cc(Cl)cc(NCC4CCOCC4)c3[nH]2)cc1` [Example 144, 2-{4-[5-Chloro-7-(tetrahydropyran-4-ylmethyl)amino-1H-indol-2-yl]phenyl}-acetic acid methyl ester] it is 300 nM. In the case of `COC(=O)Cc1ccc(-c2cc3cc(Cl)cc(NC4CCOCC4)c3[nH]2)cc1` [Example 146, 2-{4-[5-Chloro-7-(tetrahydropyran-4-yl)amino-1H-indol-2-yl]phenyl}-acetic acid methyl ester], the EC50 was 330 nM. As for `CC(=O)N1CCN(Cc2cccc(-c3cc4cc(Cl)cc(NC5CCOCC5)c4[nH]3)c2)CC1` [Example 150, 1-{4-[3-(5-Chloro-7-tetrahydropyran-4-ylamino-1H-indol-2-yl)-benzyl]-piperazin-1-yl}-ethanone], the EC50 amounted to 160 nM. For the compound `Cc1cc(NC2CCN(C)CC2)c2[nH]c(-c3ccccn3)cc2c1` [Example 13, (1-Methylpiperidin-4-yl)-[5-methyl-2-(pyridin-2-yl)-1H-indol-7-yl]-amine], the EC50 came out at 400 nM. Turning to `O=C(O)c1ccc(-c2cc3cc(Cl)cc(NC4CCCC4)c3[nH]2)cc1` [Example 138, 4-(5-Chloro-7-cyclopentylamino-1H-indol-2-yl)-benzoic acid], the EC50 was 100 nM.

As to `O=C(O)Cc1ccc(-c2cc3cc(Cl)cc(NC4CCCC4)c3[nH]2)cc1` [Example 140, 2-[4-(5-Chloro-7-cyclopentylamino-1H-indol-2-yl)phenyl]-acetic acid], the EC50 was 130 nM. Regarding `O=S1(=O)CCN(Cc2cc(NCC3CCNCC3)c3[nH]c(-c4ccccc4)cc3c2)CC1` [Example 96, [5-(1,1-Dioxo-thiomorpholin-4-yl)methyl-2-phenyl-1H-indol-7-yl]-(piperidin-4-yl)methyl-amine], the EC50 was found to be 120 nM.

For `OCc1cccc(-c2cc3cc(Cl)cc(NC4CCCC4)c3[nH]2)c1` [Example 125, [3-(5-Chloro-7-cyclopentylamino-1H-indol-2-yl)-phenyl]-methanol], the EC50 was determined as 111 nM. With `COC(=O)Cc1cccc(-c2cc3cc(Cl)cc(NCC4CCOCC4)c3[nH]2)c1` [Example 130, 2-{3-[5-Chloro-7-(tetrahydropyran-4-ylmethyl)amino-1H-indol-2-yl]-phenyl}-acetic acid methyl ester], the EC50 was 380 nM. Still for that read-out and setting: as for `Cc1cc(NC2CCNCC2)c2[nH]c(-c3ccccc3)cc2c1` [Example 90, (5-Methyl-2-phenyl-1H-indol-7-yl)-piperidin-4-yl-amine], the figure is 146 nM; as for `CCN(CC)CCn1c(-c2ccccc2)cc2cc(Cl)cc(NC3CCOCC3)c21` [Example 64, (Tetrahydropyran-4-yl)-[5-chloro-1-(2-diethylaminoethyl)-2-phenyl-1H-indol-7-yl]amine], 260 nM; as for `CNC1CCC(Nc2cc(Cl)cc3cc(-c4ccccc4)[nH]c23)CC1` (stereo not shown) [Example 101, N-(5-chloro-2-phenyl-1H-indol-7-yl)-N′-methyl-cyclohexane-1,4-diamine], 80 nM. `Clc1cc(NC2CCOCC2)c2[nH]c(-c3ccccc3)cc2c1` [Example 48, (Tetrahydropyran-4-yl)-(5-chloro-2-phenyl-1H-indol-7-yl)-amine]: the EC50 was 44 nM.

For the compound `O=S1(=O)CCN(Cc2cc(NC3CCOCC3)c3[nH]c(-c4ccccc4)c(Br)c3c2)CC1` [Example 72, (Tetrahydropyran-4-yl)-(3-bromo-5-(1,1-dioxo-thiomorpholin-4-yl)methyl-2-phenyl-1H-indol-7-yl)-amine], the EC50 was 60 nM. As to `Cc1cc(NC2CCCC2)c2[nH]c(-c3ccccc3)c(C)c2c1` [Example 40, Cyclopentyl-[3,5-dimethyl-2-phenyl-1H-indol-7-yl]-amine], the EC50 turned out to be 200 nM.

In the case of `Clc1cc(NCC2CCOCC2)c2[nH]cc(-c3ccccc3)c2c1` [Example 81, (Tetrahydropyran-4-yl)methyl-(5-chloro-3-phenyl-1H-indol-7-yl)-amine], the EC50 was 110 nM.

On to `Cc1cc(NC2CCC(=O)CC2)c2[nH]c(-c3ccccn3)cc2c1` [Example 20, (1-Cyclohexanon-4-yl)-[5-methyl-2-(pyridin-2-yl)-1H-indol-7-yl]-amine], for which the EC50 came to 300 nM.

With `c1ccc(-c2cc3cccc(NC4CCCC4)c3[nH]2)nc1` [Example 7, Cyclopentyl-[2-(pyridin-2-yl)-1H-indol-7-yl]amine], the half-maximal effective concentration (EC50) worked out at 500 nM. Take `OCCc1ccc(-c2cc3cc(Cl)cc(NC4CCOCC4)c3[nH]2)cc1` [Example 137, 2-{4-[5-Chloro-7-(tetrahydropyran-4-yl)amino-1H-indol-2-yl]phenyl}-ethanol]: the EC50 was 160 nM. Consider `O=C(O)C[C@@H]1CSC(c2cc(NC3CCCC3)c3[nH]c(-c4ccccc4)cc3c2)=N1` [Example 121, 2-[(R)-2-(7-cyclopentylamino-2-phenyl-1H-indol-5-yl)-4,5-dihydro-thiazol-4-yl]-acetic acid], for which the EC50 is 200 nM. The same measure, in the same setting: the figure for `O=C(O)[C@@H]1CCCN1C(=O)c1cc(NC2CCOCC2)c2[nH]c(-c3ccccc3)cc2c1` [Example 118, (2S)-1-[2-phenyl-7-(tetrahydropyran-4-yl)amino-1H-indole-5-carbonyl]-pyrrolidine-2-carboxylic acid] is 1100 nM. As for `Brc1c(-c2ccccc2)[nH]c2c(NC3CCOCC3)cc(CN3CCOCC3)cc12` [Example 162, (Tetrahydropyran-4-yl)-[3-bromo-5-(morpholin-4-yl)methyl-2-phenyl-1H-indol-7-yl]-amine], the EC50 is 700 nM. For the compound `Clc1cc(NCC2CCCC2)c2[nH]c(-c3ccccc3)cc2c1` [Example 49, Cyclopentylmethyl-(5-chloro-2-phenyl-1H-indol-7-yl)-amine], the EC50 amounted to 133 nM. Consider `Cc1cc(NC(=O)Nc2ccccc2)c2[nH]c(-c3ccccn3)cc2c1` [Example 24, 1-Phenyl-3-[5-methyl-2-(pyridin-2-yl)-1H-indol-7-yl]-urea], for which the EC50 was 900 nM.

Turning to `Cc1cc(NC2CCCCC2)c2[nH]c(-c3ccccn3)cc2c1` [Example 11, Cyclohexyl-[5-methyl-2-(pyridin-2-yl)-1H-indol-7-yl]-amine], the EC50 was 100 nM. Same read-out and setting: the figure for `CN(C)C1CCC(Nc2cc(Cl)cc3cc(-c4ccccc4)[nH]c23)CC1` (stereo not shown) [Example 100, N-(5-chloro-2-phenyl-1H-indol-7-yl)-N′,N′-dimethyl-cyclohexane-1,4-diamine] is 80 nM; for `CC(=O)N1CCC(Nc2cc(C)cc3cc(-c4ccccn4)[nH]c23)CC1` [Example 12, 1-[4-[(5-Methyl-2-(pyridin-2-yl)-1H-indol-7-yl)-amino]piperidin-1-yl]ethanone] it is 400 nM. As for `COC(=O)c1cccc(-c2cc3cc(Cl)cc(NC4CCCC4)c3[nH]2)c1` [Example 123, 3-(7-Cyclopentylamino-5-chloro-1H-indol-2-yl)-benzoic acid methyl ester], the EC50 was 190 nM. `Clc1cc(NC2CCOCC2)c2[nH]c(-c3cccc(CC4CCNC4)c3)cc2c1` (stereo not shown) [Example 149, [5-Chloro-2-(3-pyrrolidin-4-ylmethylphenyl)-1H-indol-7-yl]-(tetrahydropyran-4-yl)-amine]: the EC50 worked out at 550 nM. For the compound `Clc1cc(NC2CCN(Cc3ccccc3)C2)c2[nH]c(-c3ccccc3)cc2c1` (stereo not shown) [Example 51, (1-Benzylpyrrolidin-3-yl)-(5-chloro-2-phenyl-1H-indol-7-yl)-amine], the EC50 was found to be 230 nM. With `CN(C)c1cc(Cl)cc2cc(-c3ccccc3)n(C)c12` [Example 65, Dimethyl-(5-chloro-1-methyl-2-phenyl-1H-indol-7-yl)amine], the EC50 was 600 nM. On to `O=C(Nc1ccccc1)N1CCC(Nc2cc(Cl)cc3cc(-c4ccccc4)[nH]c23)CC1` [Example 94, 4-(5-Chloro-2-phenyl-1H-indol-7-yl)amino-piperidin-1-yl-carboxylic acid phenylamide], for which the EC50 stood at 80 nM. Same read-out and setting: the figure for `CC(=O)Nc1ccc(-c2cc3cc(N4CCS(=O)(=O)CC4)cc(NC(C4CCOCC4)C4CCOCC4)c3[nH]2)cc1` [Example 88, Di(tetrahydropyran-4-yl)methyl-{5-(1,1-dioxo-thiomorpholin-4-yl)-2-[4-(acetyl)aminophenyl]-1H-indol-7-yl}-amine] is over 2000 nM; for `CC(=O)N1CCC(Nc2cc(C)cc3cc(-c4ccccc4)[nH]c23)CC1` [Example 45, 1-[-4-[(5-Methyl-2-phenyl-1H-indol-7-yl)amino]piperidin-1-yl]ethanone] it is 210 nM; for `CN1CCC(Nc2ccc(-c3cc4cc(Cl)cc(NC5CCCC5)c4[nH]3)cc2)CC1` [Example 83, Cyclopentyl-{5-chloro-2-[4-(1-methyl-piperidin-4-yl)aminophenyl]-1H-indol-7-yl}-amine] it is 50 nM.

The experiment is the same for the next values; noted with them: doxorubicin; rat primary hepatocytes; 24-48 h; read-out: EC50, cell protective effects against doxorubicin in hepatocytes.
As to `O=C1CN(Cc2cc(NC3CCCC3)c3[nH]c(-c4cccc(F)c4)cc3c2)CCN1` [Example 38, Cyclopentyl-[2-(3-fluoro)phenyl-5-(2-oxo-piperazin-4-yl)methyl-1H-indol-7-yl]amine], the EC50 was 110 nM. For `COc1ccc(-c2cc3cc(CN4CCS(=O)(=O)CC4)cc(NC4CCOCC4)c3[nH]2)cc1` [Example 39, (Tetrahydropyran-4-yl)-[2-(4-methoxy)phenyl-5-(1,1-dioxo-thiomorpholin-4-yl)methyl-1H-indol-7-yl]amine], the concentration giving a half-maximal response (EC50) was 330 nM.
